Measurements: patent US20050130893A1, “Use of opioids in prevention of and recovery from a stress-induced crash in blood pressure” (priority 2003, published 2005)
Several values for one entry are separate records, joined by “and”; a condition that tells them apart may be missing. Equal entries are not always repeated.

How the values were obtained:
[1] = system: UbB; test: Northern blot of UbB mRNA in tissues after heat shock with opioid pretreatment; type: in vivo, rat; details: heat shock 1 h 44° C
Protocol: (§1) Experiments were undertaken to study the molecular stress response after heat stress with and without opiate pretreatment in rats. Since it is know that both behavior and pain response to opiates are gender-dependent, both male and female rats were used. The animals were treated by exposure to dry heat at a colonic temperature of 44° C. The animals were sacrificed and brain, leg and heart tissue was removed. The molecular stress responses chosen were HSP 70 and ubiquitin. HSP 70 is a chaperone protein which helps repair damaged proteins, and UbB and UbC forms of ubiquitin are induced by cell damage. Messenger RNA was extracted and analyzed using Northern Blot determination of transcript intensity in saline heat shock controls versus pretreatment with DADLE, a non-specific delta opioid agonist, and deltorphin D.
(§2) The subjects were male and female Charles River rats. The rats were divided by sex and by treatment groups. There were four treatment groups: control saline treatment, heat shock-saline treatment, heat shock-DADLE treatment, and heat shock-deltorphin-D treatment. The rats underwent a three-day protocol, receiving injections each day and on the final day undergoing heat shock. The final treatment was given on day three of the experiment, 20 minutes before heat shock. Treatment consisted of intravenous tail injections at 1 mg/kg body weight for all groups. Heat shock was initiated by 1 hour exposure in an incubator at 44° C. The rats were sacrificed 2 hours later and alteration of molecular responses monitored by gel electrophoresis of RNA using Northern blots. DNA sequences for the molecular markers HSP70 and ubiquitin were used to probe the blots. The probes were radioactively labeled with p^32 to label the probe. When the probe “finds” its complementary sequence, it binds to it and the intensity of the signal which results is determined using Molecular Analyst software of the signals on X-ray film. The intensity of the black areas on the film is a measure of gene activity altered by treatment with the respective opioids.

[2] = Change in body core temperature with injections; type: in vivo, rat; details: for Effect on body temperature, earlier work: males
[3] = system: UbC; test: Northern blot of UbC mRNA in tissues after heat shock with opioid pretreatment; type: in vivo, rat; details: heat shock 1 h 44° C
Protocol: as §1, §2

[4] = system: hemorrhagic shock; details: cited from earlier work
[5] = system: HSP70; test: Northern blot of HSP70 mRNA in tissues after heat shock with opioid pretreatment; type: in vivo, rat; details: heat shock 1 h 44° C
Protocol: as §1, §2

[6] = system: HSP 70 and ubiquitin; test: Molecular stress response (HSP 70 and ubiquitin) after heat stress, overall; type: in vivo, rat; details: pretreatment before heat shock; drug-unique patterns
Protocol: as §1
The subjects were male and female Charles River rats. The rats were divided by sex and by treatment groups. […] The rats were sacrificed 2 hours later and alteration of molecular responses monitored by gel electrophoresis of RNA using Northern blots. […] When the probe “finds” its complementary sequence, it binds to it and the intensity of the signal which results is determined using Molecular Analyst software of the signals on X-ray film. […]

[7] = Change in body core temperature with injections; type: in vivo, rat; details: for Changes in Body Temperature, Temperature Day 1 / Changes in Body Temperature, Temperature Day 2: individual animals, 1 mg/kg i.v. tail injection, 1 mg/kg; for Effect on body temperature: summary of Table 3
Protocol: as §2

[8] = system: heat shock; test: Heat shock by 1 hour exposure in incubator at 44° C, sensitivity to heat; type: in vivo, rat; details: for Sensitization to heat: male rats, pretreatment; for Protection against heat, earlier work: males
Source text: The present invention centers on the concept of using opioids as a protective agent against heat shock. Earlier work studied how two opioids, deltorphin D and DADLE would affect molecular stress response to heat and survival. […] The current study focused on the use of deltorphin D to protect against heat stroke by administration before, after, or before and after, heat stroke. Heat stroke is defined as a rapid rise in blood pressure followed by a crash in pressure in response to overheating.
as §2

[9] = system: heat stroke; test: Heat stroke induced by heating blanket in ketamine-anesthetized male rats; type: in vivo, rat; details: for Body temperature at blood pressure crash (onset of heat stroke): blanket 51.5° C.
Protocol: Male rats were used in the study. The first rat weighed approximately 500 g and was anesthetized with ketamine and then wrapped in a heating blanket to raise its body temperature and induce heat stroke. The temperature and blood pressure of the anesthetized rat was monitored with a recording colonic temperature probe and a tail blood pressure cuff. When the symptoms of heat stroke were observed, 1.8 ml of 1.0 mg/ml pure deltorphin D was administered in the tail vein. The amount of deltorphin administered was based on the earlier hemorrhagic studies of Dr. Oeltgrn.
The second male rat was catherized with an arterial line two weeks previous to the next experiment to provide a means for more rapidly providing the deltorphin. The second rat weighed approximately 500 g and was anesthetized with ketamine and then wrapped in a heating blanket set at 51.5° C. to raise its body temperature and induce heat stroke. Prior to being wrapped in the heating blanket, a pre-treatment injection of 1.8 ml of 1.0 mg/ml pure deltorphin was provided through the catheter. The temperature and blood pressure of the anesthetized rat was monitored with a recording colonic temperature probe and blood pressure was monitored and recorded off of the arterial line. […] One hour later, another 1.8 ml of 1.0 mg/ml pure deltorphin was administered through the catheter. At that time, the rat was having difficulty moving.
A third male rat weighing approximately 200 g was catherized with an arterial line the day before the test. The third rat was anesthetized with ketamine and then wrapped in a heating blanket set at 51.5° C. to raise its body temperature and induce heat stroke. Prior to being wrapped in the heating blanket, a pre-treatment injection of 0.7 ml of 1.0 mg/ml pure deltorphin was provided through the catheter. The temperature and blood pressure of the anesthetized rat was monitored with a recording colonic temperature probe and blood pressure was monitored and recorded off of the arterial line. […] Fifteen minutes later, another 0.7 ml of 1.0 mg/ml pure deltorphin was administered through the catheter. The rat died approximately 75 minutes after the onset of heat stroke. […] Nonetheless, the third animal lived for 75 minutes. This survival rate is long when compared to the study reported at Chi WT, Kao TY, Lin MT. Neurosci Res. 1996 24:159-163 wherein rats in which heat stroke was induced lived only about 17 minutes after the onset of heat stroke and continuous perfusion of the animals with saline did nothing to extend their survival.

[10] = system: cerebral ischemia; details: ischemia in mammals; cited from earlier work
[11] = Female Brain, 1 mg/kg i.v. tail injections over 3 days, sacrificed 2 hours later
[12] = Male rats, individual animals, 1 mg/kg i.v. tail injection, 1 mg/kg
[13] = second rat, 1.8 ml of 1.0 mg/ml before heating and one hour after onset, through catheter

| Molecule | UBB measurement (Northern blot transcript intensity) [1, 11] | UBB measurement (Northern blot transcript intensity) ([1]; Female Heart, 1 mg/kg i.v.) | UBB measurement (Northern blot transcript intensity) ([1]; Female Leg, 1 mg/kg i.v.) | UBB measurement (Northern blot transcript intensity) ([1]; Male Brain, 1 mg/kg i.v.) | UBB measurement (Northern blot transcript intensity) ([1]; Male Heart, 1 mg/kg i.v.) | UBB measurement (Northern blot transcript intensity) ([1]; Male Leg, 1 mg/kg i.v.) | Effect on body temperature, earlier work [2] | UBC measurement (Northern blot transcript intensity) [3, 11] | UBC measurement (Northern blot transcript intensity) ([3]; Female Heart, 1 mg/kg i.v.) | UBC measurement (Northern blot transcript intensity) ([3]; Female Leg, 1 mg/kg i.v.) | UBC measurement (Northern blot transcript intensity) ([3]; Male Brain, 1 mg/kg i.v.) | UBC measurement (Northern blot transcript intensity) ([3]; Male Heart, 1 mg/kg i.v.) | UBC measurement (Northern blot transcript intensity) ([3]; Male Leg, 1 mg/kg i.v.) | HSP measurement (Northern blot transcript intensity) [5, 11] | HSP measurement (Northern blot transcript intensity) ([5]; Female Heart, 1 mg/kg i.v.) | HSP measurement (Northern blot transcript intensity) ([5]; Female Leg, 1 mg/kg i.v.) | HSP measurement (Northern blot transcript intensity) ([5]; Male Brain, 1 mg/kg i.v.) | HSP measurement (Northern blot transcript intensity) ([5]; Male Heart, 1 mg/kg i.v.) | HSP measurement (Northern blot transcript intensity) ([5]; Male Leg, 1 mg/kg i.v.) | Alteration of the molecular stress response [6] | further results |
| --- | --- | --- | --- | --- | --- | --- | --- | --- | --- | --- | --- | --- | --- | --- | --- | --- | --- | --- | --- | --- | --- |
| CC(C)C[C@@H](NC(=O)[C@H](Cc1ccccc1)NC(=O)CNC(=O)[C@@H](C)NC(=O)[C@@H](N)Cc1ccc(O)cc1)C(=O)O [DADLE, [D-Ala2-D-Leu5]enkephalin acetate (Tyr-D-Ala-Gly-Phe-D-Leu), reference compound] | 1.688 | 3.57 | 2.76 | 4.596 | 0.7754 | 0.6005 | did not show these effects | 0.7993 | 0.5605 | 0.8995 | 2.356 | 0.5837 | 0.18 | 1.295 | 0.8958 | 0.884 | 1.391 | 0.5364 | 0.3294 | significant (p<0.05) alteration of the molecular stress response | Changes in Body Temperature, Temperature Day 1 [2, 12]: 2.36 and 1.82; Changes in Body Temperature, Temperature Day 2 [2, 12]: 1.55 and 0.2; Effect on fallen mean arterial pressure ([4]; Summers et al. 2003): quickly reverses fallen mean arterial pressure; Survival of hemorrhagic shock ([4]; Summers et al. 2003): increase survival of hemorrhagic shock; Changes in Body Temperature, Temperature Day 1 ([7]; Female rats): −2.4 and 0.45 and −1.85 and −0.85; Changes in Body Temperature, Temperature Day 2 ([7]; Female rats): −3.45 and −1.65 and −1.45 and −0.35; Effect on body temperature [7]: raises body temperature; Sensitization to heat [8]: sensitized male rats to heat; Protection against heat, earlier work [8]: did not show these effects |
| Tyr-D-Ala-Phe-Ala-Asp-Val-Ala-Ser-Thr-Ile-Gly-Asp-Phe-Phe-His-Ser-Ile-NH2 (AFADVASTIGDFFHSI; N-terminal Tyr-D-, C-amide; printed: Ala-Phe-Ala-Asp-Val-Ala-Ser-Thr-Ile-Gly-Asp-Phe-Phe-His-Ser-Ile-) [deltorphin D, linear 17 amino acid opioid peptide synthesized on a commercial peptide synthesizer] | 2.844 | 2.845 | 2.803 | 2.259 | 0.5613 | 2.319 | lowered body temperature | 0.7664 | 0.8595 | 0.2439 | 1.694 | 0.04345 | 0.1339 | 0.02634 | 1.27 | 0.9001 | 1.043 | 0.3697 | 0.6697 | significant (p<0.05) alteration of the molecular stress response | Changes in Body Temperature, Temperature Day 1 ([7]; Female rats): −0.7 (2×) and 0.2 and −1.6 and −1.5; Changes in Body Temperature, Temperature Day 2 ([7]; Female rats): −1.4 and −1.7 and −1.6 and −1.9 and −2.8; Changes in Body Temperature, Temperature Day 1 ([7]; Male rats): −2.6 and −2.2 and −1.2 and −3.1; Changes in Body Temperature, Temperature Day 2 ([7]; Male rats): −2.9 and −1.4 and −0.7 and −2.2; Effect on body temperature [7]: lowers body temperature significantly; Survival after heat stroke ([9]; first rat, approx. 500 g, 1.8 ml of 1.0 mg/ml in the tail vein when symptoms of heat stroke were observed): survived only a few minutes; Body temperature at blood pressure crash (onset of heat stroke) ([9]; second rat, approx. 500 g, pre-treatment 1.8 ml of 1.0 mg/ml through arterial catheter): 41 °C; Ability to drink seven hours after the onset of heat stroke [9, 13]: able to drink 5 ml of water out of a pipette; Ability to move two hours after the onset of heat stroke [9, 13]: able to move some on its own; Survival after heat stroke [9, 13]: alive and healthy more than four weeks after the test; Survival time after the onset of heat stroke ([9]; third rat, approx. 200 g, 0.7 ml of 1.0 mg/ml before heating and fifteen minutes after onset, catheter installed the day before): approximately 75 minutes; Body temperature at blood pressure crash (onset of heat stroke) ([9]; third rat, approx. 200 g, pre-treatment 0.7 ml of 1.0 mg/ml through arterial catheter): 41 °C; Survival relative to expected time in the absence of deltorphin administration ([9]; third rat, compared with about 17 minutes in Chi et al. 1996): more than four times the expected time; Sensitization to heat [8]: not; Protection against heat, earlier work [8]: protective against heat; Effect on neurological deficit and cerebral infarct volume [10]: decreasing neurological deficit and cerebral infarct volume |
| [D-Ala2-MePhe4-Glyol]enkephalin [DAGO] | – | – | – | – | – | – | – | – | – | – | – | – | – | – | – | – | – | – | – | – | Restoration of mean arterial pressure after hemorrhage ([4]; bleeding non-lethal, Feuerstein et al. 1985): restore mean arterial pressure after hemorrhage |
